Laboratory results published in patent US7332596B1 (priority 1999, dated 2008).
Where no end group is shown, it is not given here.

Tests used:
[1] = Freshly isolated potato intercellular wash fluid (pIWF); settings: Russet Burbank potato, up to 5 minutes

Compound `CSCC[C@H](N)C(=O)N[C@@H](CCCNC(=N)N)C(=O)N[C@@H](C)C(=O)N[C@@H](CCCCN)C(=O)N[C@@H](Cc1c[nH]c2ccccc12)C(=O)N[C@@H](CCCNC(=N)N)C(=O)N[C@@H](CCCCN)C(=O)N[C@@H](CCCCN)C(=O)N[C@@H](CCCNC(=N)N)C(=O)N[C@H](C(=O)N[C@@H](CCCNC(=N)N)C(=O)N[C@@H](CCCNC(=N)N)C(=O)N[C@@H](CC(C)C)C(=O)N[C@@H](CCCCN)C(=O)N[C@@H](CCCNC(=N)N)C(=O)N[C@@H](CCCCN)C(=O)N[C@@H](CCCNC(=N)N)C(=O)N[C@@H](CCCNC(=N)N)C(=O)N[C@@H](CCCCN)C(=O)N[C@H](C(=O)N[C@@H](CCCNC(=N)N)C(=O)N[C@@H](C)C(=O)N[C@@H](CCCNC(=N)N)C(=O)N[C@@H](CO)C(=O)N[C@@H](CCCCN)C(=O)O)C(C)C)[C@@H](C)O` [YL41] has an IC50 (Phytophthora infestans) of 4500 nM and an IC50 (Fusarium culmorum) of 1200 nM.
“MAVPKKRTSISKKRIRKKIWKRKGYWTSLKAFSLGKSLSTGNSKSFFVQQNK [BL32]” showed an IC50 (Phytophthora infestans) of 6600 nM and an IC50 (Fusarium culmorum) of 1600 nM.
“MKIRASIRRISGKSRPIRRRKRVMIISSNPRHKQKQG [BL36]” gave an IC50 (Phytophthora infestans) of 3400 nM and an IC50 (Fusarium culmorum) of 2300 nM.
“MNSHRLPGKGRRMGPIMGHTMHYRRMIITLQSSYSIPPLRKKRT [SL23]” gave an IC50 (Phytophthora infestans) of 7700 nM and an IC50 (Fusarium culmorum) of 2500 nM.
For “VKVGLATKAERASRQQRKQRKNRQKTLMGTAKVKGAKAKK”, the cleaved bond [1] was “A-T and L-M and M-G and A-K”.
In the case of “VKVGLATKAERASRQQRKQRKNRQKTLMGTAQVKGAKAKK”, the cleaved bond [1] is reported as “A-T and L-M and M-G and A-Q”.
In the case of “VKVGLATKAERASRQQRKQRKNRQKTLRGTAKVKGAKAKK”, the cleaved bond [1] is reported as “A-T and L-R and R-G and A-K”.
In the case of “VKVGLATKAERASRQQRKQRKNRQKTLRGTAKVKGAKAKK [Synthetic FCWP1]”, the “IC50 S. nodorum High salt” value (S. nodorum) is reported as >170 µg/mL, the “IC50 S. nodorum Low salt” value (S. nodorum) is reported as 22 µg/mL and the “IC50 P. infestans High salt” value (Phytophthora infestans) is reported as 20 µg/mL. The “IC50 P. infestans Low salt” value (Phytophthora infestans) was 10 µg/mL, the “IC50 F. culmorum High salt” value (Fusarium culmorum) was 85 µg/mL and the “IC50 F. culmorum Low salt” value (Fusarium culmorum) was 6 µg/mL.
With “VKVGLATKAERASRQQRKQRKNRQKTLRGTAQVKGAKAKK” the cleaved bond [1] was “A-T and L-R and R-G and A-Q”.
In the case of “VKVGLATKAERASRQQRKQRKNRQKTLRGTRKVKGAKAKK”, the cleaved bond [1] is reported as “A-T and L-R and R-G and R-K”.
For “VKVGLATKAERASRQQRKQRKNRQKTRRGTAKVKGAKAKK”, the cleaved bond [1] was “R-R and G-T and A-K and A-T”.
For “VKVGLATKAERASRQQRKQRKNRQKTRRGTRKVKGAKAKK”, the cleaved bond [1] was “A-T and T-R and G-T and R-K”.
